In general, IC50 refers to the concentration that inhibits the measured activity by half.

Results on 22 compounds are retold here after patent US11485740B2, “Inhibitors of TRPC6” (Boehringer Ingelheim International GmbH, priority 2018, dated 2022).

For this assay, the target named is T1, human TRPC6 (Homo sapiens, UniProt Q9Y210).
T1 construct: expressed in transfected cells
T1 sequence (Q9Y210 1-931): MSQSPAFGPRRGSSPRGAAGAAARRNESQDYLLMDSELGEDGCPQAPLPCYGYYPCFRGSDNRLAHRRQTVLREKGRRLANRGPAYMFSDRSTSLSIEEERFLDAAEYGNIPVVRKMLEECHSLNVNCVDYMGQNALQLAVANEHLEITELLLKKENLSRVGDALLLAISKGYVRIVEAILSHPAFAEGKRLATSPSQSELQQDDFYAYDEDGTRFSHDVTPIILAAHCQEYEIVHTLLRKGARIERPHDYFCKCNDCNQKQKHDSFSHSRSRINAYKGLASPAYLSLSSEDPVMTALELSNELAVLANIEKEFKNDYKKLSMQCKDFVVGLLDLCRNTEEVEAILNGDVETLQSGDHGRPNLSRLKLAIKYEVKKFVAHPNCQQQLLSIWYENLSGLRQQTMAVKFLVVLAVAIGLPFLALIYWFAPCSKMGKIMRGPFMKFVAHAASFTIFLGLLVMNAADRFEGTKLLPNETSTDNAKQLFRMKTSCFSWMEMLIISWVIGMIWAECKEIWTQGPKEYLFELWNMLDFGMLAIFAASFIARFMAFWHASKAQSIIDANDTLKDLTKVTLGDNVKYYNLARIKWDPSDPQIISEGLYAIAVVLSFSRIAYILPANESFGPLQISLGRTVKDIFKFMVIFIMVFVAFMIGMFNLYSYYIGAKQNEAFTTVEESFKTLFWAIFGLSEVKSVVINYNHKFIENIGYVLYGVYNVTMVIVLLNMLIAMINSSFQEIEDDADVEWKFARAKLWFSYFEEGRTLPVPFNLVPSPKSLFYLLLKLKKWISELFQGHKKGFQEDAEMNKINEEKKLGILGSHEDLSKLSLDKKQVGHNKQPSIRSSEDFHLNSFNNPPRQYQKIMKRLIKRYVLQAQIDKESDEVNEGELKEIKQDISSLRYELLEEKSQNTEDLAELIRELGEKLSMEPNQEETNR
As to the kind of experiment: High throughput screening assay: Fluo4/AM calcium fluorescence in HEK293/TREx cells expressing human TRPC6, agonist GSK1702934A (single concentration 10 μM and IC50 curves). The format is cell-based. The following applies: antagonist effect against human TRPC6, 7 concentrations 20 μM to 0.027 μM, triplicate. The text has this:
High Throughput Screening Assay
This screening assay measures human TRPC6 (transient receptor potential cation channel, subfamily C, member 6) ion channel activation via addition either of the commercially available DAG ligand analogue OAG (1-oleoyl-2-acetyl-sn-glycerol) or of the TRPC6 agonist 1-[1-(4,5,6,7,8-pentahydrocyclohepta[2,1-d]thiophen-2-ylcarbonyl)-4-piperidyl]-3-hydrobenzimidazol-2-one (GSK1702934A). The assay utilizes a fluorescent calcium sensor 4-(6-Acetoxymethoxy-2,7-difluoro-3-oxo-9-xanthenyl)-4′-methyl-2,2′-(ethylenedioxy)dianiline-N,N,N′,N′-tetraacetic acid tetrakis(acetoxymethyl) ester (Fluo4/AM) dye from Molecular Devices. Changes (increases) in intracellular calcium concentration as measured by the fluorescent signal increase provide a measurement of channel activity.
The commercially available HEK293/TREx line (Invitrogen) was stably transfected with a human TRPC6 construct and screened by conventional calcium imaging to find clones with human TRPC6 expression following stimulation with 1 μg/ml tetracycline. These cells were maintained in the growth medium recommended by the manufacturer supplemented with 100 μg/ml hygromycin to promote retention of the human TRPC6 construct. After growing to near confluency, cells were plated at a density of ^˜35,000 cells/well in 384 well CellBind plates (Corning) in the presence of 1 μg/ml tetracycline, and allowed to grow for 20-30 hrs. A nearly confluent monolayer resulted. Growth media was removed from the wells and cells were then loaded with […] Fluo4/AM diluted in Ringer's Solution (6.5 g NaCl, 0.42 g KCl, 0.25 g CaCl2) and 0.2 g of sodium bicarbonate; pH 7.4) supplemented with 1% Pluronic F-127 to a final concentration of 0.5 μM and incubated for 60 min, at room temperature. Dye solution was then removed from the cells by inverting plates with a sharp flick, and replaced with 25 μl Ringer's. Following ^˜0.5 hour for recovery from loading, cells were assayed using the Hamamatsu FDSS 6000 system, which permitted illumination at 485 nm. Frames were acquired at a rate of 0.2 Hz. During the assay, the plates were continuously vortexed, with pipette mixing of wells following addition of each reagent. For the screening assay, 26 μl of a diluted compound stock (at 50 μM) was added to each well for 2 minutes following the collection of a short (4 frame) baseline. 13 μl of agonist solution consisting of 125 nM GSK1702934A diluted in high-Ca2+Ringer solution (containing 90 mM Ca2+) was then added to each well, achieving a final concentration of 20 mM Ca2+ and 10 μM test compound. Data was collected for ^˜3 minutes following addition of high Ca2+Ringer. The fluorescent intensity observed at a particular timepoint for each well was divided by the initial fluorescent intensity for that well and the overall response was determined by averaging the resulting fluorescent ratio of the last 4 frames acquired during the experiment excepting the final frame. Negative and Positive controls were included on each plate. Negative controls wells consisted of HEK293/TREx TRPC6 cells exposed to assay buffer and agonist solution, but no test compound. Positive control consisted of wells consisted of HEK293/TREx TRPC6 cells exposed to 25 μM 3-[(2-chlorophenoxy)methyl]phenyl piperidyl ketone (Chembridge) diluted in Ringer's solution and agonist solution. These controls defined zero percent and 100 percent block respectively, and intensity of each well was normalized to these values.
Compounds were tested in triplicate at all concentrations. Standard software was used to fit IC50 curves.
As for `COc1cc(C(=O)N2CCC(c3ccc(N)nn3)CC2)ccc1-c1ccc(C(F)(F)F)nc1` [Compound 59, [4-(6-Amino-pyridazin-3-yl)-piperidin-1-yl]-[3-methoxy-4-(6-trifluoromethyl-pyridin-3-yl)-phenyl]-methanone], the half-maximal inhibitory concentration (IC50) was determined as 0.64 µM.
To `Cc1cc(C(=O)N2CCC(c3ccc(N)nn3)CC2)ccc1-c1ccc(C(F)(F)F)cc1` [Compound 63, [4-(6-Amino-pyridazin-3-yl)-piperidin-1-yl]-(2-methyl-4′-trifluoromethyl-biphenyl-4-yl)-methanone] belongs 4.7 µM.
Consider `COc1cc(C(=O)N2CCC(c3ccc(N)nn3)CC2)ncc1-c1cnc(OCC(F)(F)F)nc1` [Compound 54], for which the half-inhibitory concentration (IC50) worked out at 0.83 µM.
Take `COc1ccc(-c2cnc(C(=O)N3CCC(c4ccc(N)nn4)CC3)cc2OC)cc1` [Compound 28, [4-(6-Amino-pyridazin-3-yl)-piperidin-1-yl]-[4-methoxy-5-(4-methoxy-phenyl)-pyridin-2-yl]-methanone]: the IC50 is 0.19 µM.
The value for `Nc1ccc(C2CCN(C(=O)c3ccc(-c4ccc(F)cc4)cc3)CC2)nn1` [Compound 7, [4-(6-Amino-pyridazin-3-yl)-piperidin-1-yl]-(4′-fluoro-biphenyl-4-yl)-methanone] was 3.4 µM.
As for `COc1cc(C(=O)N2CCC(c3ccc(N)nn3)CC2)ncc1-c1ccc(C)c(F)c1` [Compound 34, [4-(6-Amino-pyridazin-3-yl)-piperidin-1-yl]-[5-(3-fluoro-4-methyl-phenyl)-4-methoxy-pyridin-2-yl]-methanone], the IC50 amounted to 0.1 µM.
To `COc1cc(-c2ccc(C(F)(F)F)cc2)ccc1C(=O)N1CCC(c2ccc(N)nn2)CC1` [Compound 66, [4-(6-Amino-pyridazin-3-yl)-piperidin-1-yl]-(3-methoxy-4′-trifluoromethyl-biphenyl-4-yl)-methanone] belongs 0.52 µM; to `COc1cc(C(=O)N2CCC(c3ccc(N)nn3)CC2)ncc1-c1ccc(OC(F)(F)F)cc1` [Compound 31, [4-(6-Amino-pyridazin-3-yl)-piperidin-1-yl]-[4-methoxy-5-(4-trifluoromethoxy-phenyl)-pyridin-2-yl]-methanone], 0.094 µM; to `COc1cc(C(=O)N2CCC(c3ccc(N)nn3)CC2)ccc1-c1ccc(O[C@@H](C)C2CC2)nc1` [Compound 78, [4-(6-Amino-pyridazin-3-yl)-piperidin-1-yl]-{4-[6-((S)-1-cyclopropyl-ethoxy)-pyridin-3-yl]-3-methoxy-phenyl}-methanone], 0.46 µM.
To `COc1cc(C(=O)N2CCC(c3ccc(N)nn3)CC2)ccc1-c1ccc(C(F)(F)F)cc1` [Compound 55, [4-(6-Amino-pyridazin-3-yl)-piperidin-1-yl]-(2-methoxy-4′-trifluoromethyl-biphenyl-4-yl)-methanone] belongs 0.43 µM; to `COc1cc(C(=O)N2CCC(c3ccc(N)nn3)CC2)ncc1-c1cnc(OC(C)C)nc1` [Compound 53, [4-(6-Amino-pyridazin-3-yl)-piperidin-1-yl]-[5-(2-isopropoxy-pyrimidin-5-yl)-4-methoxy-pyridin-2-yl]-methanone], 3.6 µM.
To `COc1cc(C(=O)N2CCC(c3ccc(N)nn3)CC2)ncc1-c1ccc(OCC2CC2)c(Cl)c1` [Compound 18] belongs 2.7 µM; to `COc1cc(C(=O)N2CCN(c3cnc(N)cc3OC)CC2)ncc1-c1ccccc1` [Compound 105, 4-Methoxy-5-[4-(4-methoxy-5-phenylpyridine-2-carbonyl)piperazin-1-yl]pyridin-2-amine], 0.032 µM; to `COc1cc(C(=O)N2CCC(c3ccc(N)nn3)CC2)cnc1-c1ccc(C(F)(F)F)cc1` [Compound 65, [4-(6-Amino-pyridazin-3-yl)-piperidin-1-yl]-[5-methoxy-6-(4-trifluoromethyl-phenyl)-pyridin-3-yl]-methanone], 0.86 µM.
In the case of `COc1cc(C(=O)N2CCC(c3nnc(N)cc3OC)CC2)ncc1-c1ccccc1` [Compound 87, [4-(6-Amino-4-methoxy-pyridazin-3-yl)-piperidin-1-yl]-(4-methoxy-5-phenyl-pyridin-2-yl)-methanone], the IC50 stood at 0.54 µM.
Turning to `COc1cc(C(=O)N2CCC(c3ccc(N)nn3)CC2)ccc1-c1ccc(OC2CC2)nc1` [Compound 73, [4-(6-Amino-pyridazin-3-yl)-piperidin-1-yl]-[4-(6-cyclopropoxy-pyridin-3-yl)-3-methoxy-phenyl]-methanone], the IC50 is 0.51 µM.
The value for `COc1cc(C(=O)N2CCC(c3ccc(N)nn3)CC2)ncc1-c1ccc(F)c(OCC(F)(F)F)c1` [Compound 15, [4-(6-Amino-pyridazin-3-yl)-piperidin-1-yl]-{5-(4-fluoro-3-(2,2,2-trifluoro-ethoxy)-phenyl]-4-methoxy-pyridin-2-yl}-methanone] was 1.7 µM.
To `COc1cc(C(=O)N2CCN(c3ccc(N)nc3)C[C@@H]2CO)ncc1-c1ccccc1` [Compound 91, [(R)-4-(6-Amino-pyridin-3-yl)-2-hydroxymethyl-piperazin-1-yl]-(4-methoxy-5-phenyl-pyridin-2-yl)-methanone] belongs 0.3 µM.
The value for `COc1cc(C(=O)N2CCC(c3ccc(N)nn3)CC2)ccc1-c1ccc(OCC2(CF)CC2)nc1` [Compound 80, [4-(6-Amino-pyridazin-3-yl)-piperidin-1-yl]-{4-[6-(1-fluoromethyl-cyclopropylmethoxy)-pyridin-3-yl]-3-methoxy-phenyl}-methanone] was 0.13 µM; that for `C[C@@H]1CN(C(=O)c2ccc(-c3ccc(C(F)(F)F)cc3)cc2)CCN1c1ccc(N)nc1` [Compound 113, [(R)-4-(6-Amino-pyridin-3-yl)-3-methyl-piperazin-1-yl]-(4′-trifluoromethyl-biphenyl-4-yl)-methanone] was 2.8 µM.
On to `COc1cc(C(=O)N2CCC(c3ccc(N)nn3)CC2)ncc1-c1ccc(C(F)(F)F)cc1Cl` [Compound 24, [4-(6-Amino-pyridazin-3-yl)-piperidin-1-yl]-[5-(2-chloro-4-trifluoromethyl-phenyl)-4-methoxy-pyridin-2-yl]-methanone], for which the IC50 is 0.42 µM.
For the compound `COc1cc(C(=O)N2CCC(c3ccc(N)nn3)CC2)ncc1-c1ccc2c(c1)OCC2` [Compound 16, [4-(6-Amino-pyridazin-3-yl)-piperidin-1-yl]-[5-(2,3-dihydro-benzofuran-6-yl)-4-methoxy-pyridin-2-yl]-methanone], the IC50 was found to be 0.39 µM.
